In article PMC4497792 (RSC advances, 2015):

Key:
[1] = test system: A549 non-small cell lung carcinoma cells; assay: Intracellular concentration / cell uptake assessment by LC-MS; format: cell-based, human; settings: 100 μM, 4 hours, compared to aglycone NHI-2 and to each other
HeLa cells = settings: antiproliferative IC50, HeLa and A549 cells
[2] = target: human lactate dehydrogenase hLDH5 (LDH-A4) (Homo sapiens, UniProt P00338); assay: Enzyme inhibition assay, NADH-competition kinetics on purified hLDH5
GLUT1 = settings: cited from earlier work; for Km: read-out: Km for GLUT1

| Structure (SMILES) | cell uptake (intracellular concentration, in words) [1] | enhanced potency compared to NHI-2 (HeLa cells) | Km (GLUT1) [mM] | other results |
| --- | --- | --- | --- | --- |
| COC(=O)c1cc2c(C(F)(F)F)cc(-c3ccccc3)cc2n1O[C@@H]1O[C@H](CO)[C@@H](O)[C@H](O)[C@H]1NC(C)=O [Compound 4, Methyl 1-(((2S,3R,4R,5S,6R)-3-acetamido-4,5-dihydroxy-6-(hydroxymethyl)tetrahydro-2H-pyran-2-yl)oxy)-6-phenyl-4-(trifluoromethyl)-1H-indole-2-carboxylate] | – | – | – | Ki [2]: 98.4 ± 15.6 µM |
| OC[C@H]1OC(O)[C@@H](O)[C@@H](O)[C@@H]1O (stereo partly drawn) [Mannose, D-mannose] | – | – | 20 | reduction of affinity for GLUT1 compared to glucose (GLUT1): 13 fold |
| OC[C@H]1OC(O)[C@H](O)[C@@H](O)[C@@H]1O (some centres unmarked) [glucose] | – | – | 1.5 | – |

Second part, led by results:

| cell uptake (intracellular concentration, in words) [1] | Structure (SMILES) | enhanced potency compared to NHI-2 (HeLa cells) | Km (GLUT1) [mM] | other results |
| --- | --- | --- | --- | --- |
| significantly enhanced cell uptake | COC(=O)c1cc2c(C(F)(F)F)cc(-c3ccccc3)cc2n1O[C@H]1O[C@H](CO)[C@@H](O)[C@H](O)[C@@H]1O [Compound 2, Methyl 6-phenyl-4-(trifluoromethyl)-1-(((2R,3S,4S,5S,6R)-3,4,5-trihydroxy-6-(hydroxymethyl)tetrahydro-2H-pyran-2-yl)oxy)-1H-indole-2-carboxylate] | 3–6 fold | – | – |
| slightly lower levels of cell uptake | COC(=O)c1cc2c(C(F)(F)F)cc(-c3ccccc3)cc2n1O[C@@H]1O[C@H](CO)[C@H](O)[C@@H](O)[C@H]1O [Compound 3, Methyl 6-phenyl-4-(trifluoromethyl)-1-(((2S,3R,4R,5R,6R)-3,4,5-trihydroxy-6-(hydroxymethyl)tetrahydro-2H-pyran-2-yl)oxy)-1H-indole-2-carboxylate] | 2–3 fold | – | – |
